The text below walks through data of ChEMBL document CHEMBL5055646, “Discovery of novel BTK PROTACs for B-Cell lymphomas” (Eur J Med Chem, 2021).

In data set [1] the target is T1, Tyrosine-protein kinase BTK (Homo sapiens, UniProt Q06187). Kind of data set: Inhibition of full length N-terminal GST fusion tagged human BTK expressed in baculovirus expression system using FAM-P2 peptide solution as substrate incubated for 10 mins in presence of ATP by microplate reader assay.
Data set [2] concerns the target T2, Protein cereblon/Tyrosine-protein kinase BTK (Homo sapiens, UniProt Q06187+Q96SW2). The experiment in a line: Protac activity at BTK/CRBN in human JeKo-1 cells assessed as induction of BTK degradation at 100 nM measured after 1 hr by Western blot analysis relative to control. It is filed as cell-based. (In western blotting, separated proteins are transferred to a membrane and probed.)
Target sequence in this assay (Q06187 2-659 limits assumed): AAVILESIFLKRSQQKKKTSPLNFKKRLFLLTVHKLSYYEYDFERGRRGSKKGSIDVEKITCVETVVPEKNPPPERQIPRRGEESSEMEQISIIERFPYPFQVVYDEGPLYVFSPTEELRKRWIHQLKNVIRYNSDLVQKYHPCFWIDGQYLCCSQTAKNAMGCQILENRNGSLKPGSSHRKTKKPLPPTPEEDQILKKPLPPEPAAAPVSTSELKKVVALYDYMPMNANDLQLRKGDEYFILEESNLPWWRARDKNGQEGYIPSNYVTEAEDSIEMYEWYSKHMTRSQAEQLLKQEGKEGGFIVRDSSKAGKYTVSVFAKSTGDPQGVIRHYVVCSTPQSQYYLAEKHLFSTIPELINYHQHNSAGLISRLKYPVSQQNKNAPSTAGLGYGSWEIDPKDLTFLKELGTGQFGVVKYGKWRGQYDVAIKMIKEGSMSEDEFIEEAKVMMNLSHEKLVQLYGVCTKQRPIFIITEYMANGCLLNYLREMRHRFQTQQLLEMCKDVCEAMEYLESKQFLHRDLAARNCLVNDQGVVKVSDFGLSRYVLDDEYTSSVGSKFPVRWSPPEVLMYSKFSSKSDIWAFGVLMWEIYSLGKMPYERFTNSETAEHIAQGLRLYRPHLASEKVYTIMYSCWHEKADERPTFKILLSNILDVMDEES
Target sequence in this assay (Q96SW2 whole entry partner): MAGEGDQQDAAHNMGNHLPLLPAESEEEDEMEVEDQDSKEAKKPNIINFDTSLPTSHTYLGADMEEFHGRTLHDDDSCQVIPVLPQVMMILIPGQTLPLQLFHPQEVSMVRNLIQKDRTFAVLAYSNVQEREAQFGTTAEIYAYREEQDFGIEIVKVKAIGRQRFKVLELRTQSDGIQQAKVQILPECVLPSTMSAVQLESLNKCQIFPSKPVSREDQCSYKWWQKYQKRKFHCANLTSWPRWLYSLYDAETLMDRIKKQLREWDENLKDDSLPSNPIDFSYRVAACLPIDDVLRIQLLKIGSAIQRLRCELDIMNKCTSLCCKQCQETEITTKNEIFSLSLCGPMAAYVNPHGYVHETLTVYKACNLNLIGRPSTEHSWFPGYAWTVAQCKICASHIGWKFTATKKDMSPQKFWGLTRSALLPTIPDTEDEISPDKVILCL

In data set [3] the target is T1, Tyrosine-protein kinase BTK. Kind of data set: Inhibition of full length N-terminal GST fusion tagged human BTK expressed in baculovirus expression system at 50 nM using FAM-P2 peptide solution as substrate incubated for 10 mins in presence of ATP by microplate reader assay relative to control.
The test system of data set [4] is Protein cereblon/Tyrosine-protein kinase BTK (Homo sapiens), Q06187+Q96SW2 [C481S]. Kind of data set: Protac activity at BTK C481S mutant/CRBN in human TMD8 cells assessed as maximal BTK degradation measured after 1 hr by Western blot analysis relative to control. It is filed as cell-based.
Data set [5] can be described thus: Half life in human plasma. It is filed as ADME, cell-free.
Data set [6] deals with T2, Protein cereblon/Tyrosine-protein kinase BTK. The experiment in a line: Protac activity at BTK/CRBN in human JeKo-1 cells assessed as induction of BTK degradation measured after 1 hr by Western blot analysis. It is filed as cell-based.
Target sequence in this assay (Q06187 whole entry): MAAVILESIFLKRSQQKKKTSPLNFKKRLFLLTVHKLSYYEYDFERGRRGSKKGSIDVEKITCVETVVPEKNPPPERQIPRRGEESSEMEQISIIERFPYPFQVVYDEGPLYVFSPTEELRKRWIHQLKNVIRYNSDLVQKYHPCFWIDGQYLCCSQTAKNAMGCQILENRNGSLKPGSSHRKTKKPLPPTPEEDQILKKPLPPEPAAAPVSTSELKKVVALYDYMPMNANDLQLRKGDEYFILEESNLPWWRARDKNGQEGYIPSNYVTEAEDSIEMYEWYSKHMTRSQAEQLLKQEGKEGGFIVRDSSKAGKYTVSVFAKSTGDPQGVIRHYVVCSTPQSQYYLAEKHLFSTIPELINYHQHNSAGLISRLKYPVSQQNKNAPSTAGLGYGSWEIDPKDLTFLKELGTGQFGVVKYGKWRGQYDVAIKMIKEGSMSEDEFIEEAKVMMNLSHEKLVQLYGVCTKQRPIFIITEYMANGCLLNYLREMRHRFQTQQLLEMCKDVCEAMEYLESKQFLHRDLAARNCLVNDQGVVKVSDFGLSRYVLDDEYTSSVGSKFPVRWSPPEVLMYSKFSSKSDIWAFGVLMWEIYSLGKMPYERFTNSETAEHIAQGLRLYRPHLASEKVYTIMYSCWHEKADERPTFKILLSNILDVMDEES
Target sequence in this assay (Q96SW2 whole entry): as the sequence (Q96SW2 whole entry partner) above
The test system of data set [7] is TMD8. The experiment in a line: cells. The settings on record: Homo sapiens, TMD8, 72 h.
Data set [8] relates to TMD8. The experiment in a line: cells. The note with it: Homo sapiens, TMD8, 72 h. The source holds these as a separate data set.
The target in data set [9] is Protein cereblon/Tyrosine-protein kinase BTK (Homo sapiens, UniProt Q06187+Q96SW2, C481S). Kind of data set: Protac activity at BTK C481S mutant/CRBN in human TMD8 cells assessed as induction of BTK degradation measured after 1 hr by Western blot analysis. It is filed as cell-based.
In data set [10] the target is T2, Protein cereblon/Tyrosine-protein kinase BTK. The experiment in a line: Protac activity at BTK/CRBN in human JeKo-1 cells assessed as maximal BTK degradation measured after 1 hr by Western blot analysis relative to control. Format: cell-based.
Target sequence in this assay (Q06187 2-659 limits assumed): as the sequence (Q06187 2-659 limits assumed) above
Target sequence in this assay (Q96SW2 whole entry partner): as the sequence (Q96SW2 whole entry partner) above
The target in data set [11] is T1, Tyrosine-protein kinase BTK. The experiment in a line: Inhibition of full length N-terminal GST fusion tagged human BTK expressed in baculovirus expression system at 500 nM using FAM-P2 peptide solution as substrate incubated for 10 mins in presence of ATP by microplate reader assay.
A short description of data set [12]: Apparent permeability across apical to basolateral side in human Caco-2 cells. It is filed as ADME, cell-based. Background: Caco-2 monolayers are a common model of the intestinal barrier.
Data set [13] can be described thus: Apparent permeability across basolateral to apical side in human Caco-2 cells. Format: ADME, cell-based.
Data set [14] can be described thus: Efflux ratio of apparent permeability from basolateral to apical side over apical to basolateral side in human Caco-2 cells. Format: ADME, cell-based.

A word on the IC50: it is the concentration that inhibits the measured activity by half. What is called inhibition is how much of the control response was suppressed. The half-life is the time needed for the level to fall by half in the phase considered. What is called DC50 is the midpoint of the concentration-degradation curve. By Papp A→B is commonly meant the apparent permeability from the apical to the basolateral side of a cell layer. By Papp B→A is commonly meant how fast a substance crosses the layer from the basolateral side. Broadly, the efflux ratio is the permeability from basolateral to apical divided by that in the opposite direction, in the common usage.

T1 sequence (Q06187 whole entry, the tested form may be a part): as the sequence (Q06187 whole entry) above
Chain of Protein cereblon/Tyrosine-protein kinase BTK (Homo sapiens, UniProt Q06187+Q96SW2, C481S) (Q06187 2-659 C481S limits assumed, stated change not applied): as the sequence (Q06187 2-659 limits assumed) above, with C480S counted along it
Chain of Protein cereblon/Tyrosine-protein kinase BTK (Homo sapiens, UniProt Q06187+Q96SW2, C481S) (Q96SW2 whole entry, stated change not applied): as the sequence (Q96SW2 whole entry partner) above

On to `O=C(CNc1ncnc2[nH]cc(C(=O)c3ccc(Oc4ccccc4)cc3Cl)c12)NCCOCCOCCOCCOCCOCCNc1cccc2c1C(=O)N(C1CCC(=O)NC1=O)C2=O` (stereo not drawn), for which the IC50 stood at 1210 nM in [1], 1690 nM in [7] and 63.3 nM in data set [8]. For the same compound, the Activity in data set [2] amounted to 64.2%. Besides, the inhibition worked out at 5.9% in data set [3] and 35.5% in data set [11]. For the same compound, the %max in [4] worked out at 88.4%; in data set [10], 72.4%. The compound further registered a half-life in data set [5] of 5.34 h. Further, the DC50 in [6] was 8.1 nM; in data set [9] it was 80.4 nM.

Regarding `O=C(O)CNc1ncnc2[nH]cc(C(=O)c3ccc(Oc4ccccc4)cc3Cl)c12`, the IC50 in data set [1] is 81.4 nM. Besides, the inhibition in data set [3] was determined as 44.2%; in [11] it was 85.1%.

With `O=C(CNc1ncnc2[nH]cc(C(=O)c3ccc(Oc4ccccc4)cc3Cl)c12)NCCOCCOCCOCCOCCNc1cccc2c1C(=O)N(C1CCC(=O)NC1=O)C2=O` (stereo not drawn), the IC50 in [1] stood at 2200 nM. In data set [2], the Activity was found to be 55.6%. The inhibition in data set [3] turned out to be 5.6%; in data set [11] it was 35.6%. Besides, the %max in data set [4] came out at 68.6%; in data set [10], 66.5%. The values for the half-maximal degradation concentration (DC50) in data set [6] and in data set [9] were 9.4 nM and 52.7 nM, respectively.

On to `O=C1CCC(N2C(=O)c3cccc(NCCOCCOCCOCCNC(=O)N[C@H]4CC[C@@H](Nc5ncnc6[nH]cc(C(=O)c7ccc(Oc8ccccc8)cc7Cl)c56)CC4)c3C2=O)C(=O)N1` (stereo partly drawn), for which the IC50 in data set [1] was 22.3 nM. Besides, the Activity in [2] worked out at 44.1%. The inhibition in data set [3] came out at 73.5%; in [11] it was 95.2%. Also, the %max in data set [4] turned out to be 84.3%; in data set [10] it was 76.9%. Moreover, the DC50 in [6] was 32.3 nM; in [9], 30.1 nM.

`CCNC(=O)CNc1ncnc2[nH]cc(C(=O)c3ccc(Oc4ccccc4)cc3Cl)c12`: the IC50 in data set [1] was 407 nM.

Consider `O=C1CCC(N2C(=O)c3cccc(NCCOCCOCCNC(=O)N[C@H]4CC[C@@H](Nc5ncnc6[nH]cc(C(=O)c7ccc(Oc8ccccc8)cc7Cl)c56)CC4)c3C2=O)C(=O)N1` (stereo partly drawn), for which, in data set [1], the IC50 was 15.5 nM. In addition, the Activity in [2] amounted to 22.8%. In addition, the results for the inhibition in [3] and in [11] were 82.1% and 97.4%, respectively.

For `O=C(CNc1ncnc2[nH]cc(C(=O)c3ccc(Oc4ccccc4)cc3Cl)c12)NCCOCCOCCNc1cccc2c1C(=O)N(C1CCC(=O)NC1=O)C2=O` (stereo not drawn), the IC50 in data set [1] was 3780 nM. Besides, the Activity in [2] is 33%. The figures for the inhibition in [3] and in [11] were 7.5% and 21.5%, respectively.

For `O=C(CNc1ncnc2[nH]cc(C(=O)c3ccc(Oc4ccccc4)cc3Cl)c12)NCCOCCOCCOCCNc1cccc2c1C(=O)N(C1CCC(=O)NC1=O)C2=O` (stereo not drawn), the IC50 in data set [1] stood at 1930 nM. Also, the Activity in [2] was determined as 56.2%. Besides, the inhibition in data set [3] worked out at 8.6%; in data set [11], 21.6%. Further, the DC50 in data set [6] amounted to 28.5 nM. Moreover, the %max in data set [10] turned out to be 67.1%.

With `O=C(CNc1ncnc2[nH]cc(C(=O)c3ccc(Oc4ccccc4)cc3Cl)c12)NCCCCNc1cccc2c1C(=O)N(C1CCC(=O)NC1=O)C2=O` (stereo not drawn), the Activity in [2] was found to be 24.9%. Besides, the inhibition in data set [3] is 1.8%; in [11] it was 9.3%.

For `CCOC(=O)CNc1ncnc2[nH]cc(C(=O)c3ccc(Oc4ccccc4)cc3Cl)c12`, the IC50 in data set [1] was 5970 nM. Further, the inhibition in data set [3] was 4.9%; in data set [11], 10.9%.

For `O=C1CCC(N2C(=O)c3cccc(NCCOCCOCCOCCOCCOCCNC(=O)N[C@H]4CC[C@@H](Nc5ncnc6[nH]cc(C(=O)c7ccc(Oc8ccccc8)cc7Cl)c56)CC4)c3C2=O)C(=O)N1` (stereo partly drawn), the figures for the IC50 in data set [1], in [7] and in data set [8] were 56.4 nM, 254 nM and 45.7 nM, respectively. Also, in data set [2], the Activity is 93.7%. Moreover, the figures for the inhibition in data set [3] and in data set [11] were 58.4% and 90%, respectively. Moreover, the %max in [4] amounted to 90.7%; in data set [10] it was 93%. In addition, the half-life in [5] came to 3.55 h. Besides, the results for the DC50 in [6] and in [9] were 41.9 nM and 42.9 nM, respectively. In addition, in [12], the Papp A→B was < 5.3 ×10⁻⁶ cm/s. Besides, the Papp B→A in [13] stood at 7.5 ×10⁻⁶ cm/s. In addition, in data set [14], the efflux ratio is > 1.4.

With `O=C(CNc1ncnc2[nH]cc(C(=O)c3ccc(Oc4ccccc4)cc3Cl)c12)NCCOCCOCCOCCOCCOCCOCCNc1cccc2c1C(=O)N(C1CCC(=O)NC1=O)C2=O` (stereo not drawn), the results for the IC50 in data set [1], in data set [7] and in data set [8] were 1390 nM, 750 nM and 104 nM, respectively. Moreover, the Activity in data set [2] worked out at 78.7%. Further, the inhibition in data set [3] was 10%; in data set [11], 42.5%. Further, the %max was determined as 84.8% in data set [4] and 92.4% in data set [10]. The DC50 in data set [6] was determined as 8.3 nM; in data set [9], 52.3 nM.

Consider `O=C1CCC(N2C(=O)c3cccc(NCCOCCOCCOCCOCCNC(=O)N[C@H]4CC[C@@H](Nc5ncnc6[nH]cc(C(=O)c7ccc(Oc8ccccc8)cc7Cl)c56)CC4)c3C2=O)C(=O)N1` (stereo partly drawn), for which the IC50 in data set [1] was 46.9 nM; in data set [7] it was 290 nM; in [8], 39.5 nM. Further, the Activity in [2] came out at 88.8%. The inhibition is 32.6% in data set [3] and 74.9% in data set [11]. In addition, the %max in data set [4] stood at 83.5%; in [10] it was 78%. Also, the DC50 in data set [6] is 12.1 nM; in [9], 37.9 nM.

With `O=C1CCC(N2C(=O)c3cccc(NCCCCNC(=O)N[C@H]4CC[C@@H](Nc5ncnc6[nH]cc(C(=O)c7ccc(Oc8ccccc8)cc7Cl)c56)CC4)c3C2=O)C(=O)N1` (stereo partly drawn), the IC50 in data set [1] was 23 nM. Moreover, the Activity in [2] was 6.8%. The results for the inhibition in data set [3] and in data set [11] were 75% and 96.2%, respectively.

On to `O=C(CNc1ncnc2[nH]cc(C(=O)c3ccc(Oc4ccccc4)cc3Cl)c12)NCCOCCOCCOCCOCCOCCOCCOCCNc1cccc2c1C(=O)N(C1CCC(=O)NC1=O)C2=O` (stereo not drawn), for which, in [2], the Activity stood at 14.7%. For the same compound, the figures for the inhibition in [3] and in [11] were 7% and 39%, respectively.

In the case of `CCNC(=O)N[C@H]1CC[C@@H](Nc2ncnc3[nH]cc(C(=O)c4ccc(Oc5ccccc5)cc4Cl)c23)CC1`, in data set [1], the IC50 amounted to 25.2 nM.

On to `N[C@H]1CC[C@@H](Nc2ncnc3[nH]cc(C(=O)c4ccc(Oc5ccccc5)cc4Cl)c23)CC1`, for which the IC50 in data set [1] was determined as 4.3 nM. Also, the inhibition in data set [3] is 94.2%; in data set [11], 99.5%.

Consider `O=C(CNc1ncnc2[nH]cc(C(=O)c3ccc(Oc4ccccc4)cc3Cl)c12)NCCNc1cccc2c1C(=O)N(C1CCC(=O)NC1=O)C2=O` (stereo not drawn), for which the inhibition was determined as 2.4% in data set [3] and 10.9% in data set [11].
